biological target: hROMK (human Kir1.1) (Homo sapiens (Human), UniProt P48048); test: Thallium Flux Assay (FluxOR, CHO T-Rex hROMK stable cell line); format: cell-based; settings: CHO T-Rex hROMK cells, 10-point concentration response curve; read-out: Human ROMK TH Flux IC50
Sequence (P48048 whole entry): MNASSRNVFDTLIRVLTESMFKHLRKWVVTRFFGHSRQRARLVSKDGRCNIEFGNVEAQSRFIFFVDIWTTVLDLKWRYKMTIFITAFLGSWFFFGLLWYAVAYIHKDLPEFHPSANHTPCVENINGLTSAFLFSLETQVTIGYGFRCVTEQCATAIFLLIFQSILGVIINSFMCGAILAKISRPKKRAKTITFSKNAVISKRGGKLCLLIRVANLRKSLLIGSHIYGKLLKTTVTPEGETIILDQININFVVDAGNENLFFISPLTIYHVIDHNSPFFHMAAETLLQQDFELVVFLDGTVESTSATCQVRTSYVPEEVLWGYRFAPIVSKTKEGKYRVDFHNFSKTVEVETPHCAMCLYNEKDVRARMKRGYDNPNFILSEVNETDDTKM
Method: Solutions and reagents: Thallium flux assay was performed using FluxOR kit (F10017, Life Technologies). Loading buffer, assay buffer and stimulus buffer were prepared using kit components.
To prepare 10 ml of loading buffer: 10 μl of FluxOR dye (reconstituted in DMSO) was first added to 100 μl of powerload concentrate and this mix along with 100 μl of Probenicid (100×) was then added to 9.79 ml of HBSS. […] Stimulus buffer was composed of 15 mM Tl2SO4, 0.75 mM K2SO4 in FluxOR chloride free buffer (diluted to 1× using deionized water). The final concentration of Tl2SO4 and K2SO4 in the assay plate was 3 mM and 0.15 mM, respectively.
Plating and induction of cells: The CHO T-Rex hROMK (human Kir1.1) stable cell line was maintained in Ham's F12 media supplemented with 10% FBS, 1% Penicillin-Streptomycin, 500 μg/ml Zeocin and 10 μg/ml Blasticidin at 37° C. in a 5% CO2 incubator. […] The cell suspension was centrifuged at 1200 rpm for 5 min. After discarding the supernatant, the cells were resuspended in fresh growth media and cell concentration was determined using a hemocytometer. […] The assay plate was kept at 37° C. in a 5% CO2 incubator.
Assay protocol: On the day of experiment, media was removed and loading buffer was added (30 μl/well) to the assay plate. The cells were incubated in the loading buffer for 30 minutes at 37° C. The loading buffer was then replaced by assay buffer (30 μl/well) followed by addition of test compounds or controls. […] Each well was read for 90 sec at 2 sec interval and the stimulus buffer was added after 20 seconds of baseline recording. The final DMSO concentration was either 0.5 or 1% in the assay plate. Positive and negative controls were defined by addition of DMSO or 3 μM of a standard ROMK inhibitor, respectively, to the wells instead of a test compound.
A 10-point concentration response curve was used to estimate the IC50 value of test compounds.

SMILES	IC50 [nM]
Cc1cc(-n2[nH]cc(CNC[C@H](O)c3ccc4c(c3C)COC4=O)c2=O)ncc1C#N [Example 36, (R)-6-(4-(((2-hydroxy-2-(4-methyl-1-oxo-1,3-dihydroisobenzofuran-5-yl)ethyl)amino)methyl)-5-oxo-2,5-dihydro-1H-pyrazol-1-yl)-4-methylnicotinonitrile]	390
Cc1c([C@@H](O)CNC(C)(C)c2cnn(-c3ccc4oc(=O)n(C)c4c3)c2)ccc2c1COC2=O [Example 37, (R)-5-(4-(2-((2-hydroxy-2-(4-methyl-1-oxo-1,3-dihydroisobenzofuran-5-yl)ethyl)amino)propan-2-yl)-1H-pyrazol-1-yl)-3-methylbenzo[d]oxazol-2(3H)-one]	930
Cc1cc(-n2cc(CCNC(=O)Cc3ccc4c(c3C)COC4=O)cn2)ncc1C#N [Example 38, N-(2-(1-(5-cyano-4-methylpyridin-2-yl)-1H-pyrazol-4-yl)ethyl)-2-(4-methyl-1-oxo-1,3-dihydroisobenzofuran-5-yl)acetamide]	340
Cc1cc(-c2cnc(CNC[C@H](O)c3ccc4c(c3C)COC4=O)nc2)ncc1C#N [Example 40, (R)-6-(2-(((2-hydroxy-2-(4-methyl-1-oxo-1,3-dihydroisobenzofuran-5-yl)ethyl)amino)methyl)pyrimidin-5-yl)-4-methylnicotinonitrile]	340
Cc1cc(-c2nc(CNC[C@H](O)c3ccc4c(c3C)COC4=O)n(C)n2)ncc1C#N [Example 42, (R)-6-(5-(((2-hydroxy-2-(4-methyl-1-oxo-1,3-dihydroisobenzofuran-5-yl)ethyl)amino)methyl)-1-methyl-1H-1,2,4-triazol-3-yl)-4-methylnicotinonitrile]	855
Cc1c([C@H](CNCc2cnn(-c3ccc4oc(=O)n(C)c4c3)c2)OC(=O)[C@H](N)C(C)C)ccc2c1COC2=O [Example 44, (R)-1-(4-methyl-1-oxo-1,3-dihydroisobenzofuran-5-yl)-2-(((1-(3-methyl-2-oxo-2,3-dihydrobenzo[d]oxazol-5-yl)-1H-pyrazol-4-yl)methyl)amino)ethyl D-valinate]	140
Cc1cn(-c2ccc(CNC[C@H](O)c3ccc4c(c3C)COC4=O)nn2)cn1 [Example 53, (R)-5-(1-hydroxy-2-(((6-(4-methyl-1H-imidazol-1-yl)pyridazin-3-yl)methyl)amino)ethyl)-4-methylisobenzofuran-1(3H)-one]	320
Cc1cc(-n2nc(C)c(CNC[C@H](O)c3ccc4c(c3C)COC4=O)n2)ncc1C#N [Example 58, (R)-6-(4-(((2-hydroxy-2-(4-methyl-1-oxo-1,3-dihydroisobenzofuran-5-yl)ethyl)amino)methyl)-5-methyl-2H-1,2,3-triazol-2-yl)-4-methylnicotinonitrile]	300
Cc1cc(-n2cc(CNC[C@H](NS(=O)(=O)C3CC3)c3ccc4c(c3C)COC4=O)cn2)ncc1C#N [Example 62, (R)-N-(2-(((1-(5-cyano-4-methylpyridin-2-yl)-1H-pyrazol-4-yl)methyl)amino)-1-(4-methyl-1-oxo-1,3-dihydroisobenzofuran-5-yl)ethyl)cyclopropanesulfon-amide]	390
Cc1cc(-n2cc(CNC[C@H](NC(=O)CO)c3ccc4c(c3C)COC4=O)cn2)ncc1C#N [Example 63, (R)-N-(2-(((1-(5-cyano-4-methylpyridin-2-yl)-1H-pyrazol-4-yl)methyl)amino)-1-(4-methyl-1-oxo-1,3-dihydroisobenzofuran-5-yl)ethyl)-2-hydroxyacetamide]	130
CN[C@@H](CNCc1cnn(-c2cc(C)c(C#N)cn2)c1)c1ccc2c(c1C)COC2=O [Example 64, (R)-4-methyl-6-(4-(((2-(4-methyl-1-oxo-1,3-diydroisobenzofuran-5-yl)-2-(methylamino)ethyl)amino)methyl)-1H-pyrazol-1-yl)nicotinonitrile]	430
Cc1cc(-n2cc(CNC[C@@H](c3ccc4c(c3C)COC4=O)N(C)S(C)(=O)=O)cn2)ncc1C#N [Example 65, (R)-N-(2-(((1-(5-cyano-4-methylpyridin-2-yl)-1H-pyrazol-4-yl)methyl)amino)-1-(4-methyl-1-oxo-1,3-dihydroisobenzofuran-5-yl)ethyl)-N-methylmethanesulfonamide]	38
Cc1cc(-n2cc(CNC[C@@H](c3ccc4c(c3C)COC4=O)N3CCCS3(=O)=O)cn2)ncc1C#N [Example 66, (R)-6-(4-(((2-(1,1-dioxidoisothiazolidin-2-yl)-2-(4-methyl-1-oxo-1,3-dihydroisobenzofuran-5-yl)ethyl)amino)methyl)-1H-pyrazol-1-yl)-4-methylnicotinonitrile]	260
Cc1cn(-c2cc(C)c(CNC[C@H](O)c3ccc4c(c3C)COC4=O)cn2)cn1 [Example 76, (R)-5-(1-hydroxy-2-(((4-methyl-6-(4-methyl-1H-imidazol-1-yl)pyridin-3-yl)methyl)amino)ethyl)-4-methylisobenzofuran-1(3H)-one]	81
Cc1cn(-c2ccc(CNC[C@H](O)c3ccc4c(c3C)COC4=O)c(C)n2)cn1 [Example 77]	190
Cc1cc(C#N)cnc1-n1cc(CNC[C@H](O)c2ccc3c(c2C)COC3=O)cn1 [Example 78, (R)-6-(4-(((2-hydroxy-2-(4-methyl-1-oxo-1,3-dihydroisobenzofuran-5-yl)ethyl)amino)methyl)-1H-pyrazol-1-yl)-5-methylnicotinonitrile]	440
Cc1c([C@@H](O)CNCc2cnn(-c3ccc4nncn4n3)c2)ccc2c1COC2=O [Example 79, (R)-5-(2-(((1-([1,2,4]triazolo[4,3-b]pyridazin-6-yl)-1H-pyrazol-4-yl)methyl)amino)-1-hydroxyethyl)-4-methylisobenzofuran-1(3H)-one]	530
COc1cc(-n2cc(CNC[C@H](O)c3ccc4c(c3C)COC4=O)cn2)ccn1 [Example 80, (R)-5-(1-hydroxy-2-(((1-(2-methoxypyridin-4-yl)-1H-pyrazol-4-yl)methyl)amino)ethyl)-4-methylisobenzofuran-1(3H)-one]	530
Cc1cc(-n2cc(CN(CC3CCOC3)C[C@H](O)c3ccc4c(c3C)COC4=O)cn2)ncc1C#N (stereo partly drawn) [Example 85, 6-(4-((((R)-2-hydroxy-2-(4-methyl-1-oxo-1,3-dihydroisobenzofuran-5-yl)ethyl)((tetrahydrofuran-3-yl)methyl)amino)methyl)-1H-pyrazol-1-yl)-4-methylnicotinonitrile]	230
Cc1cc(-c2nc(CNC[C@H](O)c3ccc4c(c3C)COC4=O)cn2C)ncc1C#N [Example 86, (R)-6-(4-(((2-hydroxy-2-(4-methyl-1-oxo-1,3-dihydroisobenzofuran-5-yl)ethyl)amino)methyl)-1-methyl-1H-imidazol-2-yl)-4-methylnicotinonitrile]	430
COc1cc(-n2cnc(C)c2)ncc1CNC[C@H](O)c1ccc2c(c1C)COC2=O [Example 89, (R)-5-(1-hydroxy-2-(((4-methoxy-6-(4-methyl-1H-imidazol-1-yl)pyridin-3-yl)methyl)amino)ethyl)-4-methylisobenzofuran-1(3H)-one]	92
Cc1ncn(-c2ncc(CNC[C@H](O)c3ccc4c(c3C)COC4=O)cn2)c1C(F)F [Example 90, (R)-5-(2-(((2-(5-(difluoromethyl)-4-methyl-1H-imidazol-1-yl)pyrimidin-5-yl)methyl)amino)-1-hydroxyethyl)-4-methylisobenzofuran-1(3H)-one]	230
Cc1cc(-n2cc(CNC[C@H](O)c3ccc4c(c3C)COC4=O)ccc2=O)ncc1C#N [Example 99, (R)-5-(((2-hydroxy-2-(4-methyl-1-oxo-1,3-dihydroisobenzofuran-5-yl)ethyl)amino)methyl)-4′-methyl-2-oxo-2H-[1,2′-bipyridine]-5′-carbonitrile]	140
CCc1nn(-c2ccc(CNC[C@H](O)c3ccc4c(c3C)COC4=O)cn2)cc1C#N [Example 103, (R)-3-ethyl-1-(5-(((2-hydroxy-2-(4-methyl-1-oxo-1,3-dihydroisobenzofuran-5-yl)ethyl)amino)methyl)pyridin-2-yl)-1H-pyrazole-4-carbonitrile]	55.2
Cc1c([C@@H](O)CNCc2cnn(-c3cc(N4CCCC4)c(C#N)cn3)c2)ccc2c1COC2=O [Example 119, (R)-6-(4-(((2-hydroxy-2-(4-methyl-1-oxo-1,3-dihydroisobenzofuran-5-yl)ethyl)amino)methyl)-1H-pyrazol-1-yl)-4-(pyrrolidin-1-yl)nicotinonitrile]	91
Cc1c([C@@H](O)CNCc2cncc(-c3ccc4oc(=O)n(C)c4c3)c2)ccc2c1COC2=O [Example 120, (R)-5-(5-(((2-hydroxy-2-(4-methyl-1-oxo-1,3-dihydroisobenzofuran-5-yl)ethyl)amino)methyl)pyridin-3-yl)-3-methylbenzo[d]oxazol-2(3H)-one]	120
Cc1c([C@@H](O)CNCc2cnn(-c3ccc4oc(=O)[nH]c4c3)c2)ccc2c1COC2=O [Example 121, (R)-5-(4-(((2-hydroxy-2-(4-methyl-1-oxo-1,3-dihydroisobenzofuran-5-yl)ethyl)amino)methyl)-1H-pyrazol-1-yl)benzo[d]oxazol-2(3H)-one]	160
Cc1c([C@@H](O)CNCc2ccc(-c3ccc(=O)n(C)n3)nc2)ccc2c1COC2=O [Example 122, (R)-6-(5-(((2-hydroxy-2-(4-methyl-1-oxo-1,3-dihydroisobenzofuran-5-yl)ethyl)amino)methyl)pyridin-2-yl)-2-methylpyridazin-3(2H)-one]	170
Cc1ncn(-c2ncc(CNC[C@H](O)c3ccc4c(c3C)COC4=O)cn2)n1 [Example 123, (R)-5-(1-hydroxy-2-(((2-(3-methyl-1H-1,2,4-ttiazol-1-yl)pyrimidin-5-yl)methyl)amino)ethyl)-4-methylisobenzofuran-1(3H)-one]	210
Cc1c([C@@H](O)CNCc2ccc(-c3cnn(C)c3)nc2)ccc2c1COC2=O [Example 124, (R)-5-(1-hydroxy-2-(((6-(1-methyl-1H-pyrazol-4-yl)pyridin-3-y)methyl)amino)ethyl)-4-methylisobenzofuran-1(3H)-one]	260

Source: patent US10723723B2, “Substituted bicycle heterocyclic derivatives useful as ROMK channel inhibitors” (BRISTOL-MYERS SQUIBB COMPANY, priority 2016, dated 2020)
